Earlier results as cited in patent US9592310B1 (priority 2004, dated 2017).

Structure (SMILES): [O][Cl+][O-] [Chlorine dioxide]
- concentration at which chlorine dioxide is stable in water and aqueous solutions: approximately 10 grams per Liter
